{"source": "patent US20060093580A1", "about": "“Tolerogenic vaccine and method” (priority 2004, published 2006)", "key": {"CD4 Foxp3^+ cells": {"test_system": "CD4 Foxp3^+ cells", "assay": "Foxp3 and CTLA-4 flow cytometry of CD4 T cells expanded with alcohol", "type": "cell-based, mouse", "protocol": "(B) Foxp3 and CTLA4 levels were determined by flow cytometry analysis of CD4^med, CD4^t-but or CD4^1-but cells at day 1 (upper panels) and day 8 (lower panels).\nAfter 3 days of culture with alcohol, cells were expanded in the medium free of alcohol but containing IL-2 for 4 days and analyzed by flow cytometry with Foxp3 and CTLA-4."}, "CD4^+CD25^− T cells [1]": {"test_system": "CD4^+CD25^− T cells", "assay": "In vitro suppression assay", "type": "cell-based, mouse", "conditions": "1-butanol and anti-CD3 treatment", "method": "CD4^+CD25^− T cells (2.5×10^4 cells) were cultured with graded doses of CD4^med cells (open circles), CD4^t-but cells (open squares) or CD4^1-but cells (closed squares) for 72 hours with anti-CD3 antibody and APCs. Proliferation of cells was measured as in (B).\nCells were cultured as in (C) using equal numbers of CD4^+CD25^− cells and CD4^med cells, CD4^1-but cells, or CD4^t-but cells. Production of IL-2 after 24 hours of co-culture was measured.\n(H) Effect of CD4^med, CD4^t-but, and CD4^1-but cells on cytokine production by CD4^+25^− T cells. CD4^+25^− T cells were stimulated and co-cultured with CD4^med cells (med), CD4^t-but cells (t-but), or CD4^1-but cells (1-but) as described in FIG. 1D. IL-4 and IFN-γ in the culture supernatants were measured by ELISA.\nSuppression of freshly isolated CD4^+CD25^− cells was measured as in FIG. 1C.\nSuppressive effects were measured by ^3H-thymidine incorporation or by cytokine production."}, "CD4^+CD25^+ T cells [2]": {"test_system": "CD4^+CD25^+ T cells", "protocol": "(§1) After 16 hours of stimulation, expression of CD25 was analyzed by flow cytometry. Dotted lines represent the staining level of unstimulated cells."}, "ERK": {"test_system": "ERK", "assay": "Anti-CD3-induced ERK activation (phospho-ERK staining)", "type": "cell-based, mouse", "conditions": "anti-CD3 + APCs, 3 hours", "protocol": "(D) Effect of 1-butanol on antl-CD3-induced ERK activation. CD4 T cells were stimulated with anti-CD3 and APCs for 3 hours and stained with antibody against phospho-ERK. […] Thick lines show the data from stimulated cells and thin lines show data from unstimulated cells.\nTCR stimulation also induces activation of the Ras/ERK pathway, and sustained ERK activation is essential for IL-2 production (Iwashima, M. (May, 2003), Immunol. Review 192; T. Koike et al., J. Biol. Chem. 278:15685-15692)."}, "[3]": {"test_system": "splenic CD4 and CD8 T cells", "assay": "CFSE cell division of anti-CD3-stimulated splenic T cells", "type": "cell-based, mouse", "conditions": "0.3% alcohol, anti-CD3 + irradiated APCs, 72 hours", "protocol": "(§2) For determination of cell division, T cells were labeled with 1 μM CFSE (Molecular Probes, Eugene, Oreg.) for 15 minutes at 37° C. CFSE-labeled T cells (5×10^5 cells/ml) were cultured with 0.2 μg/ml of anti-CD3 with APCs (T cell-depleted splenocytes, γ-irradiated with 2000 rads, 8×10^5 cells/ml). […] After 72 hours, cells were harvested and stained with antibody against CD4 and CD8. The number of cell divisions was determined by flow cytometry. Exogenous IL-2 was added at 50 units/ml where indicated. For the proliferation assay, ^3H-thymidine (0.5 μCi/well) was added for the last 6 hours of culture. Cytokine assays were performed by enzyme-linked immunoassays as previously described (Singh, N. et al. (1999), J. Immunol. 163:2373-2377)."}, "CD4^+CD25^− T cells [4]": {"test_system": "CD4^+CD25^− T cells", "assay": "CD25 expression by flow cytometry after anti-CD3 stimulation", "type": "cell-based, mouse", "conditions": "anti-CD3 + APCs, 16 hours", "protocol": "as §1"}, "splenic CD4^+ T cells": {"test_system": "splenic CD4^+ T cells", "assay": "Anti-CD3-induced elevation of intracellular Ca2+ (Fura2-AM)", "type": "cell-based, mouse", "conditions": "added together with stimulating antibody", "protocol": "(C) 1-butanol effect on anti-CD3-induced elevation of intracellular Ca2^+. CD4 T cells were labeled with Fura2-AM and activated with biotin conjugated anti-CD3 and streptavidin. […] Levels of Ca2^+ were determined by the ratio of fluorescence at 340/380 nm.\nTo further elucidate the role of PLD in T cell activation, TCR proximal signaling events were examined. First, the effect of 1-butanol on the elevation of intracellular Ca^2+ was determined. […] Elevation of intracellular Ca^2+ is required for activation of transcription factors, such as NF-AT, which are essential for CD25 and IL-2 expression (Crabtree, G. R. and Olson, E. N. (2002), Cell 109(Suppl):867-879; Hogan, P. G. et al. (Sep. 15, […]), Genes Dev. 17:2205-[…])."}, "CD4^+CD25^+ T cells [5]": {"test_system": "CD4^+CD25^+ T cells", "conditions": "0.3%, activation by anti-CD3 and IL-2", "protocol": "(§3) (B) 1-butanol effect on the proliferative response of CD4^+CD25^− and CD4^+CD25^+ T cells to anti-CD3 or anti-CD3^+ exogenous IL-2. […] Proliferation of cells was measured as in FIG. 1B.\n(§4) (D) CD4^+CD25^− and CD4^+CD25^+ T cells (2×10^4 cells/well) were stimulated by anti-CD3 in the absence (left panel) or presence (right panel) of exogenous IL-2. […] [3H]-thymidine uptake was measured 72 hours later.\nas §2\nWe also examined the effect of 1-alcohol on the proliferation of CD4^+CD25^− and CD4^+CD25^+ cells. CD4^+CD25^− and CD4^+CD25^+ cells were isolated from splenocytes using a MoFlo cell sorter. […] Proliferation was measured by ^3H-thymidine incorporation on day 3."}, "CD4^+CD25^− T cells [6]": {"test_system": "CD4^+CD25^− T cells", "assay": "3H-thymidine proliferation after anti-CD3 stimulation with or without exogenous IL-2", "type": "cell-based, mouse", "conditions": "0.3%", "protocol": "as §3, §4, §2\nWe also examined the effect of 1-alcohol on the proliferation of CD4^+CD25^− and CD4^+CD25^+ cells. CD4^+CD25^− and CD4^+CD25^+ cells were isolated from splenocytes using a MoFlo cell sorter. Each cell type was stimulated with anti-CD3 antibody in the presence of irradiated APCs with or without the addition of exogenous IL-2. Proliferation was measured by ^3H-thymidine incorporation on day 3."}, "CD4^+CD25^− T cells [7]": {"test_system": "CD4^+CD25^− T cells", "protocol": "(I) Cytokine production by 1-but and t-but-treated CD4^+25^− and CD4^+25^+ T cells. CD4^+25^− and CD4^+25^+ T cells were stimulated as described in FIG. 3A. The same supernatants were used to measure the amount of IL-4 (left panel) and IFN-γ (right panel). Closed bars show medium-treated T cells, gray bars show t-but- treated T cells, and open bars show 1-but-treated T cells.\n(A) Effect of 1-butanol on anti-CD3-induced IL-2 production. […] IL-2 production was determined by ELISA of culture supernatants obtained after 24 hours of stimulation.\nas §2"}, "PLD [8]": {"test_system": "PLD", "assay": "TCR-induced PLD activity (3H-oleate labelling, PA and Pet by TLC)", "type": "cell-based, mouse", "conditions": "100 μM, plate-bound anti-CD3 40 minutes, 0.5% ethanol, primary T cells", "text": "FIG. 5 Effect of adenosine on TCR-induced PLD activation. (A) Phosphatidic acid production by primary CD4 T cells stimulated with anti-CD3 antibodies in the presence of ethanol (open bar) and adenosine (closed bar) compared with unstimulated T cells. (B) Phosphatidylethanol (Pet) production by primary CD4 Mouse CD4 T cells stimulated with anti-CD3 antibodies in the presence of ethanol (open bar) and adenosine (closed bar) compared with unstimulated T cells.\nMouse CD4 T cells were labeled with ^3H-oleate to measure PLD activity (Zheng, et al. (2003), Biochim. Biophys. Acta. 1643(1-3):25-36). Cells were then washed and activated by plate-bound anti-CD3 for 40 minutes in the presence of 0.5% of ethanol (open bar). Effect of adenosine was examined using the medium containing 100 μM of adenosine (closed bar). Cells were harvested and lipid extracts of cells were separated on TLC plates and bands corresponding to phosphatidic acid (PA) (FIG. 5A) and phosphatidylethanol (Pet) (FIG. 5B) were excised and counted by liquid scintillation."}, "PLD [9]": {"test_system": "PLD", "conditions": "Thibault 2000; Grenier 2003; cited from earlier work"}, "[10]": {"conditions": "anti-CD3 + APCs, 3H-thymidine at 72 hours"}}, "note": "“And” between values parts separate entries of the source, which are not always exact repeats. Equal entries are not always repeated. “Also recorded” adds a separate entry of the source. Where two headings read alike, the source gives them in different places."}
{"smiles": "CCCCO", "note": "[1-butanol]", "values": [{"measurement": "expansion of Foxp3^+ cells (total cell number)", "setting": "CD4 Foxp3^+ cells; in one week", "value": "more than 10 fold"}, {"measurement": "Numbers of live cells obtained from 1 × 10^6 CD4^+ T cells", "setting": "CD4^+ T cells", "value": "3.1 ± 0.3 ×10^6 and 2.5 ± 0.5 ×10^6 and 3.4 ± 0.5 ×10^6"}, {"measurement": "cells recovered from 1×10^6 CD4^+CD25^− cells", "setting": "CD4^+ T cells", "value": "5×10^5 cells"}, {"measurement": "cells recovered from 1×10^6 total CD4^+ cells", "setting": "CD4^+ T cells", "value": "3.6×10^6 cells"}, {"measurement": "decrease in final yield on removal of CD25^+ T cells prior to treatment", "setting": "CD4^+ T cells", "value": 80, "unit": "%"}, {"measurement": "viability or surface antigen expression after pre-incubation", "setting": "CD4^+ T cells", "value": "no difference"}, {"measurement": "suppressive activity of population expanded from total CD4^+ T cells", "setting": "CD4^+CD25^− T cells [1]", "value": "strong suppressive activity"}, {"measurement": "suppressive function of population expanded from CD4^+ T cells with CD25^+ cells removed", "setting": "CD4^+CD25^− T cells [1]", "value": "no suppressive function"}, {"measurement": "up-regulation of CD25 expression in CD4^+CD25^+ T cells", "setting": "CD4^+CD25^+ T cells [2]; anti-CD3 + APCs, 16 hours", "value": "not affected"}, {"measurement": "expression of CD69 by CD4^+CD25^+ T cells", "setting": "CD4^+CD25^+ T cells [2]; not shown", "value": "did not impair"}, {"measurement": "CD3-induced elevation of phosphorylated ERK", "setting": "ERK", "value": "abolished"}, {"measurement": "anti-CD3 induced cell division", "setting": "[3]", "value": "abrogated cell division"}, {"measurement": "expression of CD25 by CD4^+CD25^− T cells", "setting": "CD4^+CD25^− T cells [4]", "value": "blocked the expression"}, {"measurement": "anti-CD3-induced elevation of intracellular Ca^2+", "setting": "splenic CD4^+ T cells", "value": "substantially impaired"}, {"measurement": "effect on proliferation of CD4^+CD25^+ T cells", "setting": "CD4^+CD25^+ T cells [5]", "value": "no effect"}, {"measurement": "reduction of proliferation of CD4^+CD25^− cells", "setting": "CD4^+CD25^− T cells [6]; [10]", "value": 80, "unit": "%"}, {"measurement": "proliferation of treated CD4^+CD25^− cells on addition of exogenous IL-2", "setting": "CD4^+CD25^− T cells [6]; anti-CD3 + exogenous IL-2", "value": "did not restore proliferation; also recorded: did not rescue the proliferation"}, {"measurement": "production of IL-2 by CD4^+CD25^− T cells", "setting": "CD4^+CD25^− T cells [7]; anti-CD3, 24 hours, ELISA", "value": "blocked production"}, {"measurement": "IFN-γ production", "setting": "CD4^+CD25^− T cells [7]; anti-CD3, ELISA", "value": "abrogated"}, {"measurement": "IL-4 production", "setting": "CD4^+CD25^− T cells [7]; anti-CD3, ELISA", "value": "abrogated"}]}
{"smiles": "Nc1ncnc2c1ncn2[C@@H]1O[C@H](CO)[C@@H](O)[C@H]1O", "note": "[adenosine]", "values": [{"measurement": "PLD activity induced by TCR stimulation", "setting": "PLD [8]", "value": "completely abrogated"}, {"measurement": "PLD activation in neutrophils", "setting": "PLD [9]", "value": "inhibit PLD activation"}]}
{"smiles": "CC(C)(C)O", "note": "[t-butanol, Tert-butanol]", "values": [{"measurement": "cells expressing Foxp3 and CTLA-4 (in words)", "setting": "CD4 Foxp3^+ cells; 3 days with 0.3% alcohol, then 4 days IL-2 without alcohol", "value": "almost no cells"}, {"measurement": "Numbers of live cells obtained from 1 × 10^6 CD4^+ T cells", "setting": "CD4^+ T cells; 0.3% alcohol, anti-CD3 + APCs + IL-2, day 7, mean +/− standard deviation, experiments 1-3", "value": "18.5 ± 2.1 ×10^6 and 13 ± 2 ×10^6 and 14 ± 2 ×10^6"}, {"measurement": "CD3-induced elevation of phosphorylated ERK", "setting": "ERK", "value": "no detectable effect"}, {"measurement": "anti-CD3 induced cell division", "setting": "[3]", "value": "no significant effect"}, {"measurement": "expression of CD25 by CD4^+CD25^− T cells", "setting": "CD4^+CD25^− T cells [4]", "value": "did not elicit a significant effect"}, {"measurement": "anti-CD3-induced elevation of intracellular Ca^2+", "setting": "splenic CD4^+ T cells", "value": "No significant effect"}, {"measurement": "effect on proliferation of CD4^+CD25^− cells", "setting": "CD4^+CD25^− T cells [6]; [10]", "value": "no significant effect"}]}
